{
  "source": "paper PMC12814364",
  "about": "(Journal of the American Chemical Society, 2025)",
  "key": {"HBHA110–199 [1]": {"target": "T1, HBHA110–199 (Mycobacterium tuberculosis, UniProt P9WIP9)", "assay": "ITC binding of HS hexadecasaccharides with HBHA110–199"}, "HBHA110–199 [2]": {"target": "T1, HBHA110–199", "assay_type": "binding"}, "full-length HBHA": {"target": "T2, full-length HBHA (Mycobacterium tuberculosis, UniProt P9WIP9)", "T2 sequence (P9WIP9 1-199)": "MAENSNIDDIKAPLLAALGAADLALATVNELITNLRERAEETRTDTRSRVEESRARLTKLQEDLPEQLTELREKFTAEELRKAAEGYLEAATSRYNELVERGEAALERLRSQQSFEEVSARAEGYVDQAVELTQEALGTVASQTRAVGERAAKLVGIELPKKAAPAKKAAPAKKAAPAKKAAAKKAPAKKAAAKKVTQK", "assay": "Far-UV circular dichroism of full-length HBHA with added sugar"}, "HBHA110–199 [3]": {"target": "T1, HBHA110–199", "assay": "Circular dichroism of HBHA110–199 with added sugar", "details": "data not shown"}},
  "note": "Where two headings read alike, the source gives them in different places.",
  "data": [
    {"smiles": "O=C(O)[C@@H]1O[C@@H](O[C@H]2[C@H](O)[C@@H](NS(=O)(=O)O)[C@@H](O[C@H]3[C@H](O)[C@@H](OS(=O)(=O)O)[C@H]4OC[C@@H]3O4)O[C@@H]2COS(=O)(=O)O)[C@H](OS(=O)(=O)O)[C@@H](O)[C@@H]1O[C@H]1O[C@H](COS(=O)(=O)O)[C@@H](O[C@@H]2O[C@@H](C(=O)O)[C@@H](O[C@H]3O[C@H](COS(=O)(=O)O)[C@@H](O[C@@H]4O[C@@H](C(=O)O)[C@@H](O[C@H]5O[C@H](COS(=O)(=O)O)[C@@H](O[C@@H]6O[C@@H](C(=O)O)[C@@H](O[C@H]7O[C@H](COS(=O)(=O)O)[C@@H](O[C@@H]8O[C@@H](C(=O)O)[C@@H](O[C@H]9O[C@H](COS(=O)(=O)O)[C@@H](O[C@@H]%10O[C@@H](C(=O)O)[C@@H](O[C@H]%11O[C@H](COS(=O)(=O)O)[C@@H](O[C@@H]%12O[C@@H](C(=O)O)[C@@H](O[C@H]%13O[C@H](COS(=O)(=O)O)[C@@H](O)[C@H](O)[C@H]%13NS(=O)(=O)O)[C@H](O)[C@H]%12OS(=O)(=O)O)[C@H](O)[C@H]%11NS(=O)(=O)O)[C@H](O)[C@H]%10OS(=O)(=O)O)[C@H](O)[C@H]9NS(=O)(=O)O)[C@H](O)[C@H]8OS(=O)(=O)O)[C@H](O)[C@H]7NS(=O)(=O)O)[C@H](O)[C@H]6OS(=O)(=O)O)[C@H](O)[C@H]5NS(=O)(=O)O)[C@H](O)[C@H]4OS(=O)(=O)O)[C@H](O)[C@H]3NS(=O)(=O)O)[C@H](O)[C@H]2OS(=O)(=O)O)[C@H](O)[C@H]1NS(=O)(=O)O", "note": "[compound 24]", "values": [
      {"measurement": "n (sugar-to-protein binding ratio)", "setting": "HBHA110–199 [1]; 25 °C, Tris buffer pH 7.6", "value": "0.27 ± 0.01"},
      {"measurement": "ΔG", "setting": "HBHA110–199 [1]; 25 °C, Tris buffer pH 7.6", "value": "–7.82 ± 0.02 kcal/mol"},
      {"measurement": "ΔH", "setting": "HBHA110–199 [1]; 25 °C, Tris buffer pH 7.6", "value": "16.00 ± 0.00", "unit": "kcal/mol"},
      {"measurement": "–TΔS", "setting": "HBHA110–199 [1]; 25 °C, Tris buffer pH 7.6", "value": "–23.85 ± 0.08 kcal/mol"},
      {"measurement": "Kd", "setting": "HBHA110–199 [1]; Tris buffer pH 7.6, 25 °C, two trials, average ± standard deviation, read-out: dissociation constant, KD", "value": "1870 ± 60", "unit": "nM"},
      {"measurement": "Kd", "setting": "HBHA110–199 [2]; Average of Repeat I P(KKAA), residue 160-164, read-out: Dissociation constant from NMR cross-peak movement, average", "value": 8700, "unit": "nM"},
      {"measurement": "Kd", "setting": "HBHA110–199 [2]; Average of Repeat II P(AKKAA), residue 165-170, read-out: Dissociation constant from NMR cross-peak movement, average", "value": 3200, "unit": "nM"},
      {"measurement": "Kd", "setting": "HBHA110–199 [2]; Average of Repeat III P(AKKAA), residue 171-176, read-out: Dissociation constant from NMR cross-peak movement, average", "value": 2900, "unit": "nM"},
      {"measurement": "Kd", "setting": "HBHA110–199 [2]; Average of Repeat IV P([…]), residue 177-186, read-out: Dissociation constant from NMR cross-peak movement, average", "value": 1400, "unit": "nM"},
      {"measurement": "Kd", "setting": "HBHA110–199 [2]; Average of Repeat V P([…]), residue 187-196, read-out: Dissociation constant from NMR cross-peak movement, average", "value": 1600, "unit": "nM"},
      {"measurement": "Kd", "setting": "HBHA110–199 [2]; from NMR cross-peak movement, read-out: average KD in the most perturbed region (residues 178–199)", "value": 1500, "unit": "nM"},
      {"measurement": "average Δδresidue (weighted chemical shift deviation) of HBHA110–199", "setting": "HBHA110–199 [2]; protein-to-sugar molar ratio 1:2, all residues", "value": 0.035, "unit": "ppm"},
      {"measurement": "Kd", "setting": "HBHA110–199 [2]; residue A163, Repeat I, read-out: Dissociation constant from NMR cross-peak movement", "value": 9500, "unit": "nM"},
      {"measurement": "Kd", "setting": "HBHA110–199 [2]; residue A164, Repeat I, read-out: Dissociation constant from NMR cross-peak movement", "value": 5400, "unit": "nM"},
      {"measurement": "Kd", "setting": "HBHA110–199 [2]; residue A166, Repeat II, read-out: Dissociation constant from NMR cross-peak movement", "value": 3200, "unit": "nM"},
      {"measurement": "Kd", "setting": "HBHA110–199 [2]; residue A169, Repeat II, read-out: Dissociation constant from NMR cross-peak movement", "value": 5500, "unit": "nM"},
      {"measurement": "Kd", "setting": "HBHA110–199 [2]; residue A170, Repeat II, read-out: Dissociation constant from NMR cross-peak movement", "value": 2500, "unit": "nM"},
      {"measurement": "Kd", "setting": "HBHA110–199 [2]; residue A172, Repeat III, read-out: Dissociation constant from NMR cross-peak movement", "value": 2200, "unit": "nM"},
      {"measurement": "Kd", "setting": "HBHA110–199 [2]; residue A175, Repeat III, read-out: Dissociation constant from NMR cross-peak movement", "value": 2300, "unit": "nM"},
      {"measurement": "Kd", "setting": "HBHA110–199 [2]; residue A176, Repeat III, read-out: Dissociation constant from NMR cross-peak movement", "value": 1400, "unit": "nM"},
      {"measurement": "Kd", "setting": "HBHA110–199 [2]; residue A178, Repeat IV, read-out: Dissociation constant from NMR cross-peak movement", "value": 800, "unit": "nM"},
      {"measurement": "Kd", "setting": "HBHA110–199 [2]; residue A181, Repeat IV, read-out: Dissociation constant from NMR cross-peak movement", "value": 1400, "unit": "nM"},
      {"measurement": "Kd", "setting": "HBHA110–199 [2]; residue A182, Repeat IV, read-out: Dissociation constant from NMR cross-peak movement", "value": 1000, "unit": "nM"},
      {"measurement": "Kd", "setting": "HBHA110–199 [2]; residue A183, Repeat IV, read-out: Dissociation constant from NMR cross-peak movement", "value": 700, "unit": "nM"},
      {"measurement": "Kd", "setting": "HBHA110–199 [2]; residue A186, Repeat IV, read-out: Dissociation constant from NMR cross-peak movement", "value": 800, "unit": "nM"},
      {"measurement": "Kd", "setting": "HBHA110–199 [2]; residue A188, Repeat V, read-out: Dissociation constant from NMR cross-peak movement", "value": 800, "unit": "nM"},
      {"measurement": "Kd", "setting": "HBHA110–199 [2]; residue A191, Repeat V, read-out: Dissociation constant from NMR cross-peak movement", "value": 1500, "unit": "nM"},
      {"measurement": "Kd", "setting": "HBHA110–199 [2]; residue A192, Repeat V, read-out: Dissociation constant from NMR cross-peak movement", "value": 2100, "unit": "nM"},
      {"measurement": "Kd", "setting": "HBHA110–199 [2]; residue A193, Repeat V, read-out: Dissociation constant from NMR cross-peak movement", "value": 1000, "unit": "nM"},
      {"measurement": "Kd", "setting": "HBHA110–199 [2]; residue K161, Repeat I, read-out: Dissociation constant from NMR cross-peak movement", "value": 12900, "unit": "nM"},
      {"measurement": "Kd", "setting": "HBHA110–199 [2]; residue K162, Repeat I, read-out: Dissociation constant from NMR cross-peak movement", "value": 6800, "unit": "nM"},
      {"measurement": "Kd", "setting": "HBHA110–199 [2]; residue K167, Repeat II, read-out: Dissociation constant from NMR cross-peak movement", "value": 1700, "unit": "nM"},
      {"measurement": "Kd", "setting": "HBHA110–199 [2]; residue K168, Repeat II, read-out: Dissociation constant from NMR cross-peak movement", "value": 3200, "unit": "nM"},
      {"measurement": "Kd", "setting": "HBHA110–199 [2]; residue K173, Repeat III, read-out: Dissociation constant from NMR cross-peak movement", "value": 1700, "unit": "nM"},
      {"measurement": "Kd", "setting": "HBHA110–199 [2]; residue K174, Repeat III, read-out: Dissociation constant from NMR cross-peak movement", "value": 6700, "unit": "nM"},
      {"measurement": "Kd", "setting": "HBHA110–199 [2]; residue K179, Repeat IV, read-out: Dissociation constant from NMR cross-peak movement", "value": 1300, "unit": "nM"},
      {"measurement": "Kd", "setting": "HBHA110–199 [2]; residue K190, Repeat V, read-out: Dissociation constant from NMR cross-peak movement", "value": 1200, "unit": "nM"},
      {"measurement": "Kd", "setting": "HBHA110–199 [2]; residue K194, Repeat V, read-out: Dissociation constant from NMR cross-peak movement", "value": 1100, "unit": "nM"},
      {"measurement": "Kd", "setting": "HBHA110–199 [2]; residue K195, Repeat V, read-out: Dissociation constant from NMR cross-peak movement", "value": 2900, "unit": "nM"},
      {"measurement": "Kd", "setting": "HBHA110–199 [2]; residue V196, Repeat V, read-out: Dissociation constant from NMR cross-peak movement", "value": 2300, "unit": "nM"},
      {"measurement": "random coil of full-length HBHA", "setting": "full-length HBHA; HBHA:compound 1:0.5", "value": 52.4, "unit": "%"},
      {"measurement": "β-sheet of full-length HBHA", "setting": "full-length HBHA; HBHA:compound 1:0.5", "value": 24.0, "unit": "%"},
      {"measurement": "α-helix of full-length HBHA", "setting": "full-length HBHA; HBHA:compound 1:0.5, far-UV CD 195–260 nm", "value": 23.6, "unit": "%"},
      {"measurement": "random coil of full-length HBHA", "setting": "full-length HBHA; HBHA:compound 1:1", "value": 51.9, "unit": "%"},
      {"measurement": "α-helix of full-length HBHA", "setting": "full-length HBHA; HBHA:compound 1:1", "value": 24.9, "unit": "%"},
      {"measurement": "β-sheet of full-length HBHA", "setting": "full-length HBHA; HBHA:compound 1:1", "value": 23.2, "unit": "%"},
      {"measurement": "random coil of full-length HBHA", "setting": "full-length HBHA; HBHA:compound 1:1.5", "value": 52.2, "unit": "%"},
      {"measurement": "α-helix of full-length HBHA", "setting": "full-length HBHA; HBHA:compound 1:1.5", "value": 24.4, "unit": "%"},
      {"measurement": "β-sheet of full-length HBHA", "setting": "full-length HBHA; HBHA:compound 1:1.5", "value": 23.4, "unit": "%"},
      {"measurement": "increase in α-helical content of bound HBHA", "setting": "full-length HBHA; estimated by Dichroweb, roughly 16 residues", "value": "approximately 8%"},
      {"measurement": "changes in CD spectra of HBHA110–199", "setting": "HBHA110–199 [3]", "value": "no noteworthy changes"}
    ]}
  ]
}
